From patent US20140011277A1, “NOVEL THERAPEUTIC STRATEGIES FOR IMPROVING AN ANTICANCER TREATMENT” (CENTRE NATIONAL DE LA RECHERCHE SCIENTIFIQUE (CNRS), priority 2010, published 2014)

Key:
[1] = tested on: yeasts expressing human Patched protein; assay: Resistance of yeasts to doxorubicin (growth, OD at 600 nm over time); assay type: cell-based, S. cerevisiae; details: 10 μg/mL doxorubicin in rich medium, 18° C.; yeasts expressing human Patched protein vs K699 control yeasts
Procedure: Yeasts not expressing human Patched protein (controls) K699 and yeasts expressing human Patched protein were cultured at 18° C. in normal rich medium and in rich medium with 10 μg of added doxorubicin per mL of medium.
The OD of the yeasts at 600 nm is measured over time.

human Patched protein [2] = biological target: T1, human Patched protein (Homo sapiens, UniProt Q13635); assay: Binding of doxorubicin to Patched protein (quenching of doxorubicin fluorescence on yeast membrane preparations); details: 50 nM doxorubicin added to 30 μg of membranes; Patched-containing vs K699 control membranes
T1 sequence (Q13635 1-1447): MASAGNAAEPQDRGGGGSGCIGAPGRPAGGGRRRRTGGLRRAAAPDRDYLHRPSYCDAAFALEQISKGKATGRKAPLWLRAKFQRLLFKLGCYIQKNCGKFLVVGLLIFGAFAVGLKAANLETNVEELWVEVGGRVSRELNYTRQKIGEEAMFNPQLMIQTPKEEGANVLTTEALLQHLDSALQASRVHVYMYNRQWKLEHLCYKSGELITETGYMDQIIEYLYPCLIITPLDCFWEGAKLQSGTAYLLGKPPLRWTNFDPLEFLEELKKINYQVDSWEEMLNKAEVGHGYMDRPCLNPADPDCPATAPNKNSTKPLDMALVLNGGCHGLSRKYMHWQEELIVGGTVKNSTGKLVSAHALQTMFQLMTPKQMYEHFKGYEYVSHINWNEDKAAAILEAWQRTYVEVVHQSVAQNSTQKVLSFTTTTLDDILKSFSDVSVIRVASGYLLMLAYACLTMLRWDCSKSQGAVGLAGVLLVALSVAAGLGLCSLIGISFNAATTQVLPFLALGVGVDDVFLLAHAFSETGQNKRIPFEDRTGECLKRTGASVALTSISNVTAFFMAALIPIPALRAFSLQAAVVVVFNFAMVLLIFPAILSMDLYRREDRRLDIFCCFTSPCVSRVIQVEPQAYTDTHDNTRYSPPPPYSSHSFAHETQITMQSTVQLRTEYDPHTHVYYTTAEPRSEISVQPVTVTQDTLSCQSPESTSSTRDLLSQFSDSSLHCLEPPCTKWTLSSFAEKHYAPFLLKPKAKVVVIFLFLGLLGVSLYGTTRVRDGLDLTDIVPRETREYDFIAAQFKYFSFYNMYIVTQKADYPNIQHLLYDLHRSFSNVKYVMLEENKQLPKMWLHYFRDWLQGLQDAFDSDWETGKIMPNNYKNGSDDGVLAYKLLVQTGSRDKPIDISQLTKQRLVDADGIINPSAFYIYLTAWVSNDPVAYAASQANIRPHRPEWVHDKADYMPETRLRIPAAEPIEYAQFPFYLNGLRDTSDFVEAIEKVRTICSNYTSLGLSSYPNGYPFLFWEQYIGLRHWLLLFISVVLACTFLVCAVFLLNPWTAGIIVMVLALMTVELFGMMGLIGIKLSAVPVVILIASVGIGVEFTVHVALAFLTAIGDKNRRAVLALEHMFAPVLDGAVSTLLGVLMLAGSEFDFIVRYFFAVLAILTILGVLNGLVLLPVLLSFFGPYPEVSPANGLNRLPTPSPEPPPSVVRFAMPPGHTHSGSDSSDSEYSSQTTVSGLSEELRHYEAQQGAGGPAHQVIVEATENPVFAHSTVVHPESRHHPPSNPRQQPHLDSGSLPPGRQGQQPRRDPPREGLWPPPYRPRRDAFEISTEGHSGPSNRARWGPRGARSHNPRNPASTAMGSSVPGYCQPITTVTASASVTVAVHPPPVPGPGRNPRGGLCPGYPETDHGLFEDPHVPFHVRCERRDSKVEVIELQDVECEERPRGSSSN
Procedure: 50 nM of doxorubicin are added to 30 μg of membranes and the doxorubicin fluorescence is measured as a function of time.

human Patched protein [3] = biological target: T1, human Patched protein; assay: Measurement of the efflux of doxorubicin on yeasts; assay type: cell-based; design: expressed in transfected cells; host or cells: Xenopus laevis oocytes (RNA injection); details: yeasts loaded 2 hours with 10 μM doxorubicin, supernatant after 20 mins; Patched-expressing vs K699 control
Procedure: After a centrifugation (5 mins at 6800 g) to remove all cell fragments, the reading of the doxorubicin fluorescence (λex=490+/−10 nm, λem=610+/−10 nm) was carried out on 200 μL of supernatant in a plate reader (FLUOstar, Labtech). • on yeasts: K699 control yeasts and yeasts expressing human Patched protein were cultured at 18° C. up to an OD600 of 7 on a rich medium with 2% of added D-glucose.
The cells are then centrifuged, (5 mins. 3000 g), washed 4 times with water and finally resuspended carefully to an OD600 of 10 in 50 mM NaOH-Hepes buffer (pH 7.0) and incubated for 2 hours with 10 μM of doxorubicin.
After rinsing, the yeasts are resuspended in 50 mM NaOH-Hepes buffer (pH 7.0).
After 20 mins, the yeasts are centrifuged and doxorubicin contained in the supernatant is measured by fluorescence (λex=490+/−10 nm, λem=610+/−10 nm). • On xenopus oocytes: obtaining and preparing the oocytes

human Patched protein [4] = biological target: T1, human Patched protein; assay: Measurement of the efflux of doxorubicin on xenopus oocytes; assay type: cell-based; design: expressed in transfected cells; host or cells: Xenopus laevis oocytes (RNA injection); details: oocytes injected with 10 or 20 ng RNA encoding human Patched protein vs non-injected; 100 μM doxorubicin 16 hrs, supernatant after 90 mins
Procedure: The oocytes are collected by surgery on an Xenopus laevis female anaesthetized with 0.2% of MS222 (tricaine methanesulfonate) in accordance with the procedures recommended by the ethics committee. The oocytes are washed with an MBS saline solution, pH 7.4 (NaCl 85 mM, KCl 1 mM, NaHCO32,4 mM, MgSO40.82 mM, Ca(NO3)20.33 mM, CaCl2 0.41 mM, HEPES 10 mM, NaOH 4.5 mM) supplemented with 50 U/ml of penicillin and 50 μg/ml of streptomycin. The oocytes are then defolliculated by incubation for 16 hrs at 19° C. with 1.8 mg/ml of collagenase then 30 mins with MBS without calcium, and placed in MBS. 50 nL containing 10 or 20 ng of RNA encoding human Patched protein are injected per oocyte. The oocytes are incubated for 3 days at 19° C. in MBS. 4 lots of 10 control oocytes (not injected) and oocytes injected with RNA encoding human Patched protein were incubated for 16 hrs at 19° C. with 100 μM of doxorubicin. After rinsing, the oocytes are placed in MBS. The supernatant is sampled after 90 mins and the doxorubicin fluorescence present in the sample is measured by fluorescence (λex=490+/−10 nm, λem=610+/−10 nm).
The experiments being carried out on 4 lots of 10 control oocytes (non-injected) and oocytes injected with RNAs encoding human Patched protein, the average of the values obtained for the 4 lots is shown.

Structure (SMILES): COc1cccc2c1C(=O)c1c(O)c3c(c(O)c1C2=O)C[C@@](O)(C(=O)CO)C[C@@H]3O[C@H]1C[C@H](N)[C@H](O)[C@H](C)O1 [doxorubicin]
- resistance of yeasts to doxorubicin [1]: yeasts expressing human Patched protein resist better than the control yeasts
- quenching of doxorubicin fluorescence (binding to Patched protein) (human Patched protein [2]): rapid and significant quenching of the doxorubicin fluorescence
- efflux of doxorubicin (fluorescence of supernatant) (human Patched protein [3]): increase in the efflux of doxorubicin
- efflux of doxorubicin (fluorescence of supernatant) (human Patched protein [4]): increase in the efflux of doxorubicin
